According to patent US8802597B2, “Herbicidal pyrimidines” (E I du Pont de Nemours and Company, priority 2003, dated 2014):
Where two headings read alike, the source gives them in different places.

How the values were obtained:
Assay type in all cases: in vivo
[1] = system: cocklebur (Xanthium strumarium); assay: Test C pre/postemergence; settings: for pest or weed control at 31 g/ha / pest or weed control at 62 g/ha / pest or weed control at 125 g/ha / pest or weed control at 250 g/ha: Xanthium strumarium; for pest or weed control at 31 g/ha: 31 g ai/ha
Description: (§1) Seeds or nutlets of plant species selected from bermudagrass (Cynodon dactylon), Surinam grass (Brachiaria decumbens), cocklebur (Xanthium strumarium), corn (Zea mays), crabgrass (Digitaria sanguinalis), woolly cupgrass (Eriochloa villosa), giant foxtail (Setaria faberii), goosegrass (Eleusine indica), johnsongrass (Sorghum halepense), kochia (Kochia scoparia), lambsquarters (Chenopodium album), morningglory (Ipomoea coccinea), eastern black nightshade (Solanum ptycanthum), yellow nutsedge (Cyperus esculentus), pigweed (Amaranthus retroflexus), common ragweed (Ambrosia elatior), soybean (Glycine max), common (oilseed) sunflower (Helianthus annuus), and velvetleaf (Abutilon theophrasti) were planted and treated preemergence with test chemicals formulated in a non-phytotoxic solvent mixture which included a surfactant.
(§2) At the same time, plants selected from these crop and weed species and also winter barley (Hordeum vulgare), blackgrass (Alopecurus myosuroides), canarygrass (Phalaris minor), chickweed (Stellaria media), downy brome (Bromus tectorum), green foxtail (Setaria viridis), Italian ryegrass (Lolium multiflorum), wheat (Triticum aestivum), wild oat (Avena fatua) and windgrass (Apera spica-venti) were treated with postemergence applications of some of the test chemicals formulated in the same manner. Plants ranged in height from 2 to 18 cm (1- to 4-leaf stage) for postemergence treatments. Plant species in the flooded paddy test consisted of rice (Oryza sativa), umbrella sedge (Cyperus difformis), duck salad (Heteranthera limosa) and barnyardgrass (Echinochloa crus-galli) grown to the 2-leaf stage for testing. Treated plants and controls were maintained in a greenhouse for 12 to 14 days, after which time all species were compared to controls and visually evaluated. Plant response ratings, summarized in Table C, are based on a scale of 0 to 100 where 0 is no effect and 100 is complete control. A dash (-) response means no test result.

[2] = system: common ragweed (Ambrosia elatior); assay: Test C pre/postemergence; settings: for pest or weed control at 31 g/ha / pest or weed control at 62 g/ha / pest or weed control at 125 g/ha / pest or weed control at 250 g/ha: Ambrosia artemisiifolia; for pest or weed control at 31 g/ha: 31 g ai/ha
Description: as §1, §2

[3] = system: corn (Zea mays); assay: Test C pre/postemergence; settings: for Corn plant response rating (crop injury, 0 = no effect, 100 = complete kill) at 31 g/ha / Corn plant response rating (crop injury, 0 = no effect, 100 = complete kill) at 62 g/ha / Corn plant response rating (crop injury, 0 = no effect, 100 = complete kill) at 125 g/ha / Corn plant response rating (crop injury, 0 = no effect, 100 = complete kill) at 250 g/ha: Zea mays; for Corn plant response rating (crop injury, 0 = no effect, 100 = complete kill) at 31 g/ha: 31 g ai/ha
Description: as §1, §2

[4] = system: lambsquarters (Chenopodium album); assay: Test C pre/postemergence; settings: for pest or weed control at 31 g/ha / pest or weed control at 62 g/ha / pest or weed control at 125 g/ha / pest or weed control at 250 g/ha: Chenopodium album; for pest or weed control at 31 g/ha: 31 g ai/ha
Description: as §1, §2

[5] = system: chickweed (Stellaria media); assay: Test C postemergence; settings: for Plant response rating, Chickweed: scale 0 to 100
Description: as §1, §2

[6] = Postemergence, 62 g ai/ha, scale 0 to 100 (0 no effect, 100 complete control)
[7] = Postemergence, 125 g ai/ha, scale 0 to 100 (0 no effect, 100 complete control)
[8] = Postemergence, 250 g ai/ha, scale 0 to 100
[9] = Postemergence, 500 g ai/ha, scale 0 to 100

COC(=O)c1nc(C(C)C)nc(N)c1Br [Compound 3]
pest or weed control at 31 g/ha ([1]; post-emergence, Postemergence, read-out: Plant response rating (scale of 0 to 100), Cocklebur): 60%
pest or weed control at 62 g/ha ([1]; post-emergence, Postemergence, 62 g ai/ha, scale 0 to 100 (0 no effect, 100 complete control), read-out: Cocklebur plant response rating): 65%
pest or weed control at 125 g/ha ([1]; post-emergence, Postemergence, 125 g ai/ha, scale 0 to 100 (0 no effect, 100 complete control), read-out: Cocklebur plant response rating): 75%
pest or weed control at 250 g/ha ([1]; post-emergence, Postemergence, 250 g ai/ha, scale 0 to 100, read-out: Plant response rating, Cocklebur): 90%
pest or weed control at 31 g/ha ([1]; pre-emergence, Preemergence, scale 0 to 100, 0 no effect, 100 complete control, read-out: Plant response rating, Cocklebur): 0%
pest or weed control at 62 g/ha ([1]; pre-emergence, Preemergence, 62 g ai/ha, scale 0 to 100, 0 no effect, 100 complete control, read-out: Plant response rating, Cocklebur): 30%
pest or weed control at 125 g/ha ([1]; pre-emergence, Preemergence, 125 g ai/ha, scale 0 to 100, read-out: Plant response rating, Cocklebur): 55%
pest or weed control at 250 g/ha ([1]; pre-emergence, Preemergence, 250 g ai/ha, scale 0 to 100, read-out: Plant response rating, Cocklebur): 70%
pest or weed control at 31 g/ha ([2]; post-emergence, Postemergence, read-out: Plant response rating (scale of 0 to 100), Ragweed): 55%
pest or weed control at 62 g/ha ([2]; post-emergence, Postemergence, 62 g ai/ha, scale 0 to 100 (0 no effect, 100 complete control), read-out: Ragweed plant response rating): 75%
pest or weed control at 125 g/ha ([2]; post-emergence, Postemergence, 125 g ai/ha, scale 0 to 100 (0 no effect, 100 complete control), read-out: Ragweed plant response rating): 80%
pest or weed control at 250 g/ha ([2]; post-emergence, Postemergence, 250 g ai/ha, scale 0 to 100, read-out: Plant response rating, Ragweed): 95%
pest or weed control at 31 g/ha ([2]; pre-emergence, Preemergence, scale 0 to 100, 0 no effect, 100 complete control, read-out: Plant response rating, Ragweed): 0%
pest or weed control at 62 g/ha ([2]; pre-emergence, Preemergence, 62 g ai/ha, scale 0 to 100, 0 no effect, 100 complete control, read-out: Plant response rating, Ragweed): 0%
pest or weed control at 125 g/ha ([2]; pre-emergence, Preemergence, 125 g ai/ha, scale 0 to 100, read-out: Plant response rating, Ragweed): 0%
pest or weed control at 250 g/ha ([2]; pre-emergence, Preemergence, 250 g ai/ha, scale 0 to 100, read-out: Plant response rating, Ragweed): 45%
Corn plant response rating (crop injury, 0 = no effect, 100 = complete kill) at 31 g/ha ([3]; post-emergence, Postemergence, read-out: Plant response rating (scale of 0 to 100), Corn): 0%
Corn plant response rating (crop injury, 0 = no effect, 100 = complete kill) at 62 g/ha ([3]; post-emergence, Postemergence, 62 g ai/ha, scale 0 to 100 (0 no effect, 100 complete control), read-out: Corn plant response rating): 0%
Corn plant response rating (crop injury, 0 = no effect, 100 = complete kill) at 125 g/ha ([3]; post-emergence, Postemergence, 125 g ai/ha, scale 0 to 100 (0 no effect, 100 complete control), read-out: Corn plant response rating): 0%
Corn plant response rating (crop injury, 0 = no effect, 100 = complete kill) at 250 g/ha ([3]; post-emergence, Postemergence, 250 g ai/ha, scale 0 to 100): 0%
Corn plant response rating (crop injury, 0 = no effect, 100 = complete kill) at 31 g/ha ([3]; pre-emergence, Preemergence, scale 0 to 100, 0 no effect, 100 complete control, read-out: Plant response rating, Corn): 0%
Corn plant response rating (crop injury, 0 = no effect, 100 = complete kill) at 62 g/ha ([3]; pre-emergence, Preemergence, 62 g ai/ha, scale 0 to 100, 0 no effect, 100 complete control, read-out: Plant response rating, Corn): 0%
Corn plant response rating (crop injury, 0 = no effect, 100 = complete kill) at 125 g/ha ([3]; pre-emergence, Preemergence, 125 g ai/ha, scale 0 to 100, read-out: Plant response rating, Corn): 0%
Corn plant response rating (crop injury, 0 = no effect, 100 = complete kill) at 250 g/ha ([3]; pre-emergence, Preemergence, 250 g ai/ha, scale 0 to 100): 0%
pest or weed control at 31 g/ha ([4]; post-emergence, Postemergence, read-out: Plant response rating (scale of 0 to 100), Lambsquarters): 75%
pest or weed control at 62 g/ha ([4]; post-emergence, Postemergence, 62 g ai/ha, scale 0 to 100 (0 no effect, 100 complete control), read-out: Lambsquarters plant response rating): 90%
pest or weed control at 125 g/ha ([4]; post-emergence, Postemergence, 125 g ai/ha, scale 0 to 100 (0 no effect, 100 complete control), read-out: Lambsquarters plant response rating): 90%
pest or weed control at 250 g/ha ([4]; post-emergence, Postemergence, 250 g ai/ha, scale 0 to 100, read-out: Plant response rating, Lambsquarters): 100%
pest or weed control at 31 g/ha ([4]; pre-emergence, Preemergence, scale 0 to 100, 0 no effect, 100 complete control, read-out: Plant response rating, Lambsquarters): 0%
pest or weed control at 62 g/ha ([4]; pre-emergence, Preemergence, 62 g ai/ha, scale 0 to 100, 0 no effect, 100 complete control, read-out: Plant response rating, Lambsquarters): 0%
pest or weed control at 125 g/ha ([4]; pre-emergence, Preemergence, 125 g ai/ha, scale 0 to 100, read-out: Plant response rating, Lambsquarters): 0%
pest or weed control at 250 g/ha ([4]; pre-emergence, Preemergence, 250 g ai/ha, scale 0 to 100, read-out: Plant response rating, Lambsquarters): 80%
pest or weed control at 31 g/ha ([5]; Stellaria media, post-emergence, 31 g ai/ha, read-out: Plant response rating (scale of 0 to 100), Chickweed): 0%
pest or weed control at 62 g/ha ([5]; Stellaria media, post-emergence, 62 g ai/ha, scale 0 to 100 (0 no effect, 100 complete control), read-out: Chickweed plant response rating): 0%
pest or weed control at 125 g/ha ([5]; Stellaria media, post-emergence, 125 g ai/ha, scale 0 to 100, read-out: Plant response rating, Chickweed): 0%
pest or weed control at 250 g/ha ([5]; Stellaria media, post-emergence, 250 g ai/ha, scale 0 to 100, read-out: Plant response rating, Chickweed): 40%

CC(=O)NN=Cc1nc(C2CC2)nc(N)c1Br [Compound 51]
Cocklebur plant response rating [1, 6]: 65
Cocklebur plant response rating [1, 7]: 65
Plant response rating, Cocklebur [1, 8]: 70
Plant response rating, Cocklebur [1, 9]: 85
Ragweed plant response rating [2, 6]: 65
Ragweed plant response rating [2, 7]: 80
Plant response rating, Ragweed [2, 8]: 80
Plant response rating, Ragweed [2, 9]: 85
Corn plant response rating [3, 6]: 0
Corn plant response rating [3, 7]: 0
Plant response rating, Corn [3, 8]: 0
Plant response rating, Corn [3, 9]: 0
Lambsquarters plant response rating [4, 6]: 60
Lambsquarters plant response rating [4, 7]: 75
Plant response rating, Lambsquarters [4, 8]: 85
Plant response rating, Lambsquarters [4, 9]: 90
Chickweed plant response rating ([5]; 62 g ai/ha, scale 0 to 100 (0 no effect, 100 complete control)): 0
Chickweed plant response rating ([5]; 125 g ai/ha, scale 0 to 100 (0 no effect, 100 complete control)): 0
Plant response rating, Chickweed ([5]; 250 g ai/ha): 0
Plant response rating, Chickweed ([5]; 500 g ai/ha): 45
